Data on four molecules can be found in PMC7374424, “Ion-Selective Carbon Nanotube Field-Effect Transistors for Monitoring Drug Effects on Nicotinic Acetylcholine Receptor Activation in Live Cells” (Sensors (Basel, Switzerland), 2020).

Test [1] concerns nicotinic acetylcholine receptor (nAChR), native in PC12 cells, subunits not specified. Briefly: inhibition of […] nicotine-induced K+ release from PC12 cells, ion-selective CNT-FET. The test is classed as cell-based, Rattus norvegicus.
For test [2] the test system is unchanged. Briefly: agonist-induced K+ release from PC12 cells by ion-selective CNT-FET, Hill fit. Format: cell-based, Rattus norvegicus.
Test [3] shares this test system.

Where two headings read alike, the source gives them in different places.

In test [1], `C[N+](C)(C)CCCCCC[N+](C)(C)C` [HB, hexamethonium] registered an IC50 of 4.58 ± 0.85 pIC50.

Regarding `CNC1(C)C2CCC(C2)C1(C)C` (stereo not shown) [MH, mecamylamine], the IC50 in test [1] worked out at 5.74 ± 0.54 pIC50.

Take `CC(=O)OCC[N+](C)(C)C` [acetylcholine]: binding in test [2] was put at a Kd of […].

Take `CN1CCC[C@H]1c1cccnc1` [nicotine]: in test [3], the Kd turned out to be […].
